Laboratory results as given in patent publication US7101885B2, “Piperazinyl-aryloxy and piperazinyl-heteroaryloxy-n-aryl lactams” (Pfizer Inc, priority 2003, dated 2006).
Structures can show the parent of a compound that is named as a salt.

| melting point | SMILES |
| --- | --- |
| 111 to 149 °C | CN1CCN(c2ncccc2OC2CCN(c3ccc(N4CCCCC4=O)cc3)C2=O)CC1 (stereo not drawn) [Example 11, 1-(4-{3-[2-(4-Methyl-piperazin-1-yl)-pyridin-3-yloxy]-2-oxo-pyrrolidin-1-yl}-phenyl)-piperidin-2-one] |
| 164 to 180 °C | CN1CCN(c2ccccc2OC2CCN(c3ccc(N4CCCC4=O)cc3)C2=O)CC1 (stereo not drawn) [Example 3, 3-[2-(4-Methyl-piperazin-1-yl)-phenoxy]-1-(4-(2-oxo-pyrrolidin-1-yl)-phenyl)-pyrrolidin-2-one] |
| 68 to 75 °C | CN1CCN(c2ccccc2OC2CCCN(c3ccc(N4CCCC4=O)cc3)C2=O)CC1 (stereo not drawn) [Example 5, 3-[2-(4-Methyl-piperazin-1-yl)-phenoxy]-1-[4-(2-oxo-pyrrolidin-1-yl)-phenyl]-piperidin-2-one] |
| 72 to 82 °C | CN1CCN(c2ncccc2OC2CCN(c3ccc(Br)cc3)C2=O)CC1 (stereo not drawn) (as salt: hydrochloride) [Example 8, 1-(4-Bromo-phenyl)-3-[2-(4-methyl-piperazin-1-yl)-pyridin-3-yloxy]-pyrrolidin-2-one] |

Further lines, the compound ahead of its results:

| SMILES | melting point |
| --- | --- |
| CN1CCN(c2ccccc2OC2CCN(c3ccc(C(F)(F)F)cc3)C2=O)CC1.Cl (stereo not drawn) | 137 to 162 °C |
| CN1CCN(c2ncccc2OC2CCN(c3ccc(C(C)(C)C)cc3)C2=O)CC1 (stereo not drawn) (as salt: salt) [Example 9, 1-(4-tert-Butyl-phenyl)-3-[2-(4-methyl-piperazin-1-yl)-pyridin-3-yloxy]-pyrrolidin-2-one] | 131 to 164 °C |
| CN1CCN(c2ncccc2OC2CCN(c3ccc(C4CCOCC4)cc3)C2=O)CC1 (stereo not drawn) (as salt: salt) [Example 17, 3-[2-(4-Methyl-piperazin-1-yl)-pyridin-3-yloxy]-1-[4-(tetrahydro-pyran-4-yl)-phenyl]-pyrrolidin-2-one] | 219 to 248 °C |
| CN1CCN(c2ccccc2OC2CCCN(c3ccc(N4CCOC4=O)cc3)C2=O)CC1 (stereo not drawn) [Example 6, 3-[2-(4-Methyl-piperazin-1-yl)-phenoxy]-1-[4-(2-oxo-oxazolidin-3-yl)-phenyl]-piperidin-2-one] | 71 to 88 °C |
| CN1CCN(c2ncccc2OC2CCN(c3ccc(OC(F)(F)F)cc3)C2=O)CC1 (stereo not drawn) (as salt: salt) [Example 16, 1-[4-(Trifluoromethoxy)-phenyl]-3-[2-(4-methyl-piperazin-1-yl)-pyridin-3-yloxy]-pyrrolidin-2-one] | 113 to 140 °C |
| CC(C)Oc1ccc(N2CCC(Oc3cccnc3N3CCN(C)CC3)C2=O)cc1 (stereo not drawn) (as salt: salt) [Example 15, 1-[4-(Isopropoxy)-phenyl]-3-[2-(4-methyl-piperazin-1-yl)-pyridin-3-yloxy]-pyrrolidin-2-one] | 93 to 120 °C |
| CN1CCN(c2ccccc2OC2CCCN(c3ccc(C(F)(F)F)cc3)C2=O)CC1 (stereo not drawn) [Example 7, 3-[2-(4-Methyl-piperazin-1-yl)-phenoxy]-1-(4-trifluoromethyl-phenyl)-piperidin-2-one] | 81 to 110 °C |
| CN1CCN(c2ncccc2OC2CCN(c3ccc(-c4ccon4)cc3)C2=O)CC1 (stereo not drawn) (as salt: salt) [Example 21, 1-[4-(3-Isoxazolyl)-phenyl]-3-[2-(4-methyl-piperazin-1-yl)-pyridin-3-yloxy]-pyrrolidin-2-one] | 220 °C |
